Values of other authors in patent publication US20210137108A1, “REDUCED INHALATION HAZARD OF QUATERNARY AMMONIUM COMPOUNDS-PH DRIVEN PHYSIOLOGICAL RESPONSE” (priority 2016, published 2021).
Like-named read-outs stand apart in the source and are kept apart here.

Tests used:
rats = system: rats; design: key: L is lethal dose; S indicates survival
[1] = system: lung biomarkers, Clara cells, blood-air barrier; conditions: inhalation exposure at 35 mg per cubic meter
[2] = rats

Row | Molecule | lethal dose / survival (rats; i.a., dose 15-20 mg/kg) | lethal dose / survival (rats; i.v., dose 15-20 mg/kg) | lethal dose / survival (rats; p.o., dose 250 mg/kg) | lethal dose / survival (rats; p.o., dose 1250 mg/kg) | pKa | lethal dose / survival (rats; i.a., dose 100-150 mg/kg) | lethal dose / survival (rats; i.v., dose 100-150 mg/kg) | Clara cells and CC16 protein concentration [1] | changes in lung biomarker levels [1] | inflammatory response and blood-air barrier [1] | influx of proteins from blood vessels and alveolar space [1] | concentrations in the lungs and kidneys compared to levels observed in the liver and tissue [2]
1 | N=C(NCCCCCCNC(=N)NC(=N)Nc1ccc(Cl)cc1)NC(=N)Nc1ccc(Cl)cc1.O=C(O)[C@H](O)[C@@H](O)[C@H](O)[C@H](O)CO.O=C(O)[C@H](O)[C@@H](O)[C@H](O)[C@H](O)CO [Chlorhexidine gluconate] | L | L | S | S and (poor) |  |  |  |  |  |  |  | 
2 | NS(=O)(=O)O [Sulfamic Acid] |  |  |  |  | 1 |  |  |  |  |  |  | 
3 | Alkyldiaminoethylglycine | S | S | S | L |  | L | L |  |  |  |  | 
4 | Benzalkonium Chloride | L | L | S | L |  |  |  | Damage to Clara cells and a reduced concentration in CC16 protein | significant changes | strong inflammatory response and damage to the blood-air barrier | massive influx of proteins | several times higher
5 | Soidum dodecylbenzensulfonate | S | S | S | L |  | L | L |  |  |  |  | 
